Earlier results as cited in patent publication US8529935B2, “Antibacterial hydrogel and use thereof in orthopedics” (Mero S.R.L., priority 2009, dated 2013).

Conditions: known from the literature

SMILES	minimum inhibiting concentration (MIC)
NC[C@H]1O[C@H](O[C@H]2[C@H](O)[C@@H](O[C@H]3O[C@H](CO)[C@@H](O)[C@H](N)[C@H]3O)[C@H](N)C[C@@H]2N)[C@H](N)C[C@@H]1O [tobramycin]	about 1 mg/l
CN[C@H](CC(C)C)C(=O)N[C@H]1C(=O)N[C@@H](CC(N)=O)C(=O)N[C@H]2C(=O)N[C@H]3C(=O)N[C@H](C(=O)N[C@H](C(=O)O)c4cc(O)cc(O)c4-c4cc3ccc4O)[C@H](O)c3ccc(c(Cl)c3)Oc3cc2cc(c3O[C@@H]2O[C@H](CO)[C@@H](O)[C@H](O)[C@H]2O[C@H]2C[C@](C)(N)[C@H](O)[C@H](C)O2)Oc2ccc(cc2Cl)[C@H]1O [vancomycin]	1.56 to 3.12 µg/mL
